Assay results published in patent publication US20150087662A1, “CYCLOBUTANE AND METHYLCYCLOBUTANE DERIVATIVES AS JANUS KINASE INHIBITORS” (Incyte Corporation, priority 2010, published 2015).
Structures can show the parent of a compound that is named as a salt.

How the values were obtained:
JAK2 (a.a. 828-1132) = target: T1, JAK2 (a.a. 828-1132) (Homo sapiens, UniProt O60674); assay: In vitro JAK kinase assay (HTRF), JAK2; format: biochemical; details: catalytic domain, ATP 30 μM, 500 nM peptide, room temperature 1 hr
T1 construct: JAK2 (a.a. 828-1132); His tag (N); made in house; host or cells: insect cells (baculovirus)
Experimental: (§1) Compounds herein were tested for inhibitory activity of JAK targets according to the following in vitro assay described in Park et al., Analytical Biochemistry 1999, 269, 94-104. The catalytic domains of human JAK1 (a.a. 837-1142), JAK2 (a.a. 828-1132) and JAK3 (a.a. 781-1124) with an N-terminal His tag were expressed using baculovirus in insect cells and purified. The catalytic activity of JAK1, JAK2 or JAK3 was assayed by measuring the phosphorylation of a biotinylated peptide. The phosphorylated peptide was detected by homogenous time resolved fluorescence (HTRF). IC50s of compounds were measured for each kinase in the reactions that contain the enzyme, ATP and 500 nM peptide in 50 mM Tris (pH 7.8) buffer with 100 mM NaCl, 5 mM DTT, and 0.1 mg/mL (0.01%) BSA. The ATP concentration in the reactions was 90 μM for JAK1, 30 μM for JAK2 and 3 μM for JAK3. Reactions were carried out at room temperature for 1 hr and then stopped with 20 μL 45 mM EDTA, 300 nM SA-APC, 6 nM Eu-Py20 in assay buffer (Perkin Elmer, Boston, Mass.). Binding to the Europium labeled antibody took place for 40 minutes and HTRF signal was measured on a Fusion plate reader (Perkin Elmer, Boston, Mass.).

[1] = target: T2, human JAK1 (a.a. 837-1142) (Homo sapiens, UniProt P23458); assay: In vitro JAK kinase assay (HTRF), JAK1; format: biochemical; details: catalytic domain, ATP 90 μM, 500 nM peptide, room temperature 1 hr
T2 construct: human JAK1 (a.a. 837-1142); His tag (N); made in house; host or cells: insect cells (baculovirus)
Experimental: as §1

T1 sequence (O60674 828-1132): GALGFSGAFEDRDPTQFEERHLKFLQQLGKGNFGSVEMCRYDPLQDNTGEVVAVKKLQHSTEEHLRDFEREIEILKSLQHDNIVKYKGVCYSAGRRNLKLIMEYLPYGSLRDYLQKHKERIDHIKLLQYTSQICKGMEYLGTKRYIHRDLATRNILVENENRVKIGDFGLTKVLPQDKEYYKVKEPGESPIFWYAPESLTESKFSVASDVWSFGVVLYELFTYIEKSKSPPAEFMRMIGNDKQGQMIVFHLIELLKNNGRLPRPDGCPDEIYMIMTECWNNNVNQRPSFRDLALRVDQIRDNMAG
T2 sequence (P23458 849-1154): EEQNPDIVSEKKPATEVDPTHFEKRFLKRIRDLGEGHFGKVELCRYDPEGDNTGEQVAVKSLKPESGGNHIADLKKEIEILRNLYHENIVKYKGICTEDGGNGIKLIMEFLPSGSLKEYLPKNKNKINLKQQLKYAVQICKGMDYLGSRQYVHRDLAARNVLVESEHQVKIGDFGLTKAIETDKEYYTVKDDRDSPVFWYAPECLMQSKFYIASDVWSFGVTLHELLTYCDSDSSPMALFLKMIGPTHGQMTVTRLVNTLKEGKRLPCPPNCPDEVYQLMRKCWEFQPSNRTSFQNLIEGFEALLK

Compound	IC50 (JAK2 (a.a. 828-1132))	IC50 [1]
C[C@H]1C[C@@H](C(CC#N)n2cc(-c3ncnc4[nH]ccc34)cn2)C1 (single isomer, unassigned) [Example 3, (3R or 3S)-3-(4-(7H-Pyrrolo[2,3-d]pyrimidin-4-yl)-1H-pyrazol-1-yl)-3-((cis)-3-methylcyclobutyl)-propanenitrile phosphoric acid salt]	< 1 nM	< 2 nM
C[C@H]1C[C@H](C(CC#N)n2cc(-c3ncnc4[nH]ccc34)cn2)C1 (single isomer, unassigned) [Example 2, (3R or 3S)-3-(4-(7H-Pyrrolo[2,3-d]pyrimidin-4-yl)-1H-pyrazol-1-yl)-3-((trans)-3-methylcyclobutyl)propanenitrile phosphoric acid salt]	< 1 nM	< 2 nM
N#CCC(C1CCC1)n1cc(-c2ncnc3[nH]ccc23)cn1 (single isomer, unassigned) [Example 1, (R or S)-3-Cyclobutyl-3-[4-(7H-pyrrolo[2,3-d]pyrimidin-4-yl)-1H-pyrazol-1-yl]propanenitrile]	< 1 nM	< 2 nM
